Read-outs that look alike come from different tables or passages of the source.
Key:
Assay in all cases: IC50 assay, NSCLC cell lines (Cell Titer Glo, total ATP)
Type in all cases: cell-based
H157 = conditions: Homo sapiens
Experimental: (§1) Cells were plated at ˜15% confluence in a media comprising 5% concentration of fetal bovine serum supplemented with RPMI, which included 2 mM L-Glutamine in a 96 well dish. […] Following three days of incubation in a 5% CO2 incubator, the total ATP in each well was quantified using Cell Titer Glo (Promega). […] The solid lines represent the medians.

H2009 = conditions: Homo sapiens
Experimental: as §1

HCC2279 = conditions: Homo sapiens
Experimental: as §1

HCC1438 = conditions: Homo sapiens
Experimental: as §1

H1395 = conditions: Homo sapiens
Experimental: as §1

H2444 = conditions: Homo sapiens
Experimental: as §1

HCC95 = conditions: Homo sapiens
Experimental: as §1

HOP62 = conditions: Homo sapiens
Experimental: as §1

H1975 = conditions: Homo sapiens
Experimental: as §1

H125 = conditions: Homo sapiens
Experimental: as §1

H1573 = conditions: Homo sapiens, NCI-H1573, read-out: Indisulam IC50 (log 10) (converted), U2AF1 WT
Experimental: as §1

H720 = conditions: Homo sapiens
Experimental: as §1

H2122 = conditions: Homo sapiens
Experimental: as §1

H920 = conditions: Homo sapiens
Experimental: as §1

H2228 = conditions: Homo sapiens
Experimental: as §1

H460 = conditions: Homo sapiens, NCI-H460, read-out: Indisulam IC50 (log 10) (converted), U2AF1 WT
Experimental: as §1

HCC2018 = conditions: Homo sapiens
Experimental: as §1

H1770 = conditions: Homo sapiens
Experimental: as §1

H1648 = conditions: Homo sapiens
Experimental: as §1

H2347 = conditions: Homo sapiens
Experimental: as §1

H1373 = conditions: Homo sapiens
Experimental: as §1

HCC78 = conditions: Homo sapiens
Experimental: as §1

HCC1359 = conditions: Homo sapiens
Experimental: as §1

H1703 = conditions: Homo sapiens
Experimental: as §1

HCC2450 = conditions: Homo sapiens
Experimental: as §1

H2126 = conditions: Homo sapiens
Experimental: as §1

H1437 = conditions: Homo sapiens
Experimental: as §1

HCC44 = conditions: Homo sapiens
Experimental: as §1

[1] = read-out: Indisulam IC50 (log 10) (converted), U2AF1 WT
[2] = read-out: Indisulam IC50, U2AF1 WT

Compound: NS(=O)(=O)c1ccc(S(=O)(=O)Nc2cccc3c(Cl)c[nH]c23)cc1 [Indisulam, indisulam]
- IC50 (H157; NCI-H157, read-out: Indisulam IC50 (log 10) (converted), U2AF1 WT): 140 µM
- IC50 (H157; NCI-H157, read-out: Indisulam IC50, U2AF1 WT): 140 µM
- IC50 (H2009; NCI-H2009, read-out: Indisulam IC50 (log 10) (converted), U2AF1 WT): 17.4 µM
- IC50 (H2009; NCI-H2009, read-out: Indisulam IC50, U2AF1 WT): 17.4 µM
- IC50 (HCC2279; [1]): 5.68 µM
- IC50 (HCC2279; [2]): 5.68 µM
- IC50 (HCC1438; [1]): 22.7 µM
- IC50 (HCC1438; [2]): 22.7 µM
- IC50 (H1395; NCI-H1395, read-out: Indisulam IC50 (log 10) (converted), U2AF1 WT): 10.9 µM
- IC50 (H1395; NCI-H1395, read-out: Indisulam IC50, U2AF1 WT): 10.9 µM
- IC50 (H2444; NCI-H2444, read-out: Indisulam IC50 (log 10) (converted), U2AF1 WT): 14.1 µM
- IC50 (H2444; NCI-H2444, read-out: Indisulam IC50, U2AF1 WT): 14.1 µM
- IC50 (HCC95; [1]): 9.5 µM
- IC50 (HCC95; [2]): 9.5 µM
- IC50 (HOP62; HOP-62, read-out: Indisulam IC50 (log 10) (converted), U2AF1 WT): 6.08 µM
- IC50 (HOP62; HOP-62, read-out: Indisulam IC50, U2AF1 WT): 6.08 µM
- IC50 (H1975; NCI-H1975, read-out: Indisulam IC50 (log 10) (converted), U2AF1 WT): 1.51 µM
- IC50 (H1975; NCI-H1975, read-out: Indisulam IC50, U2AF1 WT): 1.51 µM
- IC50 (H125; NCI-H125, read-out: Indisulam IC50 (log 10) (converted), U2AF1 WT): 10.8 µM
- IC50 (H125; NCI-H125, read-out: Indisulam IC50, U2AF1 WT): 10.8 µM
- IC50 (H1573): ≥ 500 µM
- IC50 (H720; [1]): 1.79 µM
- IC50 (H720; [2]): 1.79 µM
- IC50 (H2122; NCI-H2122, read-out: Indisulam IC50 (log 10) (converted), U2AF1 WT): 18.8 µM
- IC50 (H2122; NCI-H2122, read-out: Indisulam IC50, U2AF1 WT): 18.8 µM
- IC50 (H920; [1]): 2.17 µM
- IC50 (H920; [2]): 2.17 µM
- IC50 (H2228; NCI-H2228, read-out: Indisulam IC50 (log 10) (converted), U2AF1 WT): 1.26 µM
- IC50 (H2228; NCI-H2228, read-out: Indisulam IC50, U2AF1 WT): 1.26 µM
- IC50 (H460): ≥ 500 µM
- IC50 (HCC2018; [1]): 6.48 µM
- IC50 (HCC2018; [2]): 6.48 µM
- IC50 (H1770; NCI-H1770, read-out: Indisulam IC50 (log 10) (converted), U2AF1 WT): 16.2 µM
- IC50 (H1770; NCI-H1770, read-out: Indisulam IC50, U2AF1 WT): 16.2 µM
- IC50 (H1648; NCI-H1648, read-out: Indisulam IC50 (log 10) (converted), U2AF1 WT): 16.8 µM
- IC50 (H1648; NCI-H1648, read-out: Indisulam IC50, U2AF1 WT): 16.8 µM
- IC50 (H2347; NCI-H2347, read-out: Indisulam IC50 (log 10) (converted), U2AF1 WT): 13.5 µM
- IC50 (H2347; NCI-H2347, read-out: Indisulam IC50, U2AF1 WT): 13.5 µM
- IC50 (H1373; NCI-H1373, read-out: Indisulam IC50 (log 10) (converted), U2AF1 S34F): 0.23 µM
- IC50 (H1373; NCI-H1373, read-out: Indisulam IC50, U2AF1 S34F): 0.23 µM
- IC50 (HCC78; read-out: Indisulam IC50 (log 10) (converted), U2AF1 S34F): 1.15 µM
- IC50 (HCC78; read-out: Indisulam IC50, U2AF1 S34F): 1.15 µM
- IC50 (HCC1359; read-out: Indisulam IC50 (log 10) (converted), U2AF1 WT (listed twice)): ≥ 50 µM
- IC50 (HCC1359; read-out: Indisulam IC50, U2AF1 WT (listed twice)): ≥ 50 µM
- IC50 (H1703; NCI-H1703, read-out: Indisulam IC50 (log 10) (converted), U2AF1 WT): 3.33 µM
- IC50 (H1703; NCI-H1703, read-out: Indisulam IC50, U2AF1 WT): 3.33 µM
- IC50 (HCC2450; [1]): 135 µM
- IC50 (HCC2450; [2]): 135 µM
- IC50 (H2126; NCI-H2126, read-out: Indisulam IC50 (log 10) (converted), U2AF1 WT): 20.5 µM
- IC50 (H2126; NCI-H2126, read-out: Indisulam IC50, U2AF1 WT): 20.5 µM
- IC50 (H1437; NCI-H1437, read-out: Indisulam IC50 (log 10) (converted), U2AF1 WT): 14 µM
- IC50 (H1437; NCI-H1437, read-out: Indisulam IC50, U2AF1 WT): 14 µM
- IC50 (HCC44; [1]): 23 µM
- IC50 (HCC44; [2]): 23 µM

— patent US20180140578A1, “METHODS AND COMPOSITIONS FOR THE DIAGNOSIS AND SELECTIVE TREATMENT OF CANCER” (Board of Regents of the University of Texas System, priority 2016, published 2018)
